Here are results for 18 compounds from patent publication US20260327232A1, “Heteroaryl Compounds as Ligand Directed Degraders of IRAK4” (Celgene Corporation, priority 2023, published 2026).

Assay [1] addresses T1, IRAK4 (Homo sapiens, UniProt Q9NWZ3).
T1 sequence (Q9NWZ3 1-460): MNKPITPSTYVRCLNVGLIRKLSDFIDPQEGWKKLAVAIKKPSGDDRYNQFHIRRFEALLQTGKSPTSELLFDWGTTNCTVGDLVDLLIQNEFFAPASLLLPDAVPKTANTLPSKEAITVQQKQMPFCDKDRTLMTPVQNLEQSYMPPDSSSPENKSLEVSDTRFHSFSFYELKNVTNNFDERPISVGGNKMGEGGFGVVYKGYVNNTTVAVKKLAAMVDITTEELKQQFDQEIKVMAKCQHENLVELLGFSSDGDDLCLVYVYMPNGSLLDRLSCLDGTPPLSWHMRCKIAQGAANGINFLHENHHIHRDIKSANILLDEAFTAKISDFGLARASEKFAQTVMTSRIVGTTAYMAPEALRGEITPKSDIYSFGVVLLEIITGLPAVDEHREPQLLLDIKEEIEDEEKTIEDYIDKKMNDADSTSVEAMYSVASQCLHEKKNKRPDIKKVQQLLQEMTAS
Description: ALE THP1 HTRF (IRAK4 in THP1 cell lysates, Homogeneous Time Resolved Fluorescence). It is filed as cell-based. The arrangement: THP1 Homogeneous Time Resolved Fluorescence (ALE THP1 HTRF) Procedure; endogenous in cells; host or cells: THP1. The conditions noted are these: THP1 cells. The method, then:
Cell culture media was prepared in a tissue culture hood in a sterile environment by adding 10% FBS and 1% Penicillin Streptomycin to 500 mL no phenol red RPMI 1640 media. The media was filtered through a Nalgene Bottle Top Filter and stored at 4° C.
For Homogenous Time Resolved Fluorescence (HTRF) assays, a Cisbio HTRF kit was used, which included: Lysis Buffer #1 4×, Blocking Reagent #3 100×, 20× Antibody 1 (Anti-IRAK4 d2), 20× Antibody 2 (Anti-IRAK4 k), and Detection Buffer.
4× Lysis Buffer was stored at 4° C. For use as 1× Lysis buffer, the 4× solution was diluted with de-ionized water (distilled water, Gibco Cat. #15230279) and 100× Blocking Reagent in a 1:3:0.04 volume ratio.
20× Antibody Solution aliquots were stored in −80° C. and the Detection Buffer was stored in 4° C. For use as a 1× Antibody Solution, the 20× Antibody Solution aliquot was diluted with Detection Buffer in a 1:19 volume ratio.
Cells were lysed at room temperature for 45 min with shaking. A BCA protein assay was performed and normalization was conducted to the desired total protein concentration with 1× lysis buffer. Next, 1× Antibody Solutions were prepared by adding 380 μL Detection Buffer to 20 μL 20× Antibody Solution aliquots and mixing well. 1× Antibody Solutions were combined 1:1 and briefly vortexed. For control wells, 20 μL 1× anti IRAK4-k Antibody Solution was saved. The 384-well plate (ProxiPlate-384 Plus, Perkin Elmer Cat. #6008289) was loaded by adding 4 μL of the mixed Antibody Solution to empty wells using a single channel repeater. Using a multi-channel repeater, 16 μL lysate was added per well, and any bubbles that were formed were popped with 20 μL pipette tips and Kimwipe edges. In column 10, triplicates of each control was prepared. In wells A10, B10, and C10, buffer control was prepared by adding 16 μL Lysis Buffer and 4 μL Detection Buffer. In wells D10, E10, and F10, cryptate control was prepared by adding 16 μL Lysis Buffer, 2 μL Detection Buffer, and 2 μL 1× anti IRAK4-k Antibody Solution. In wells G10, H10, and 110, a negative control was prepared by adding 16 μL Lysis Buffer and 4 μL mixed Antibody Solution. The plate was sealed with a clear seal and covered with an aluminum lid. The plate was spun down at 800 g for 5 min and incubated in the dark at room temperature overnight. The next day, the plate was spun down at 800 g for 5 min. The samples were analyzed by a plate reader (Envision, PerkinElmer) using the Desnor 384 HTRF program.

Assay [2] deals with T1, IRAK4. Description: IRAK4 PhosphoSens Biochemical Assay (BIOCHEM). The conditions noted are these: 200 μM ATP, 10 μM peptide substrate AQT0326, 1 nM IRAK4, room temperature, 240 minutes. The method, then: The PhosphoSens® biochemical assay was performed as described by the vendor (AssayQuant Technologies Inc. Marlborough, MA). A 1.25× stock solution of IRAK4 (PV4002, ThermoFisher Scientific, Waltham, MA) and a 5× stock solution of ATP and Sox conjugated peptide substrate, AQT0326 (CSKS-AQT0326B, AssayQuant Technologies), were prepared in 1× kinase reaction buffer consisting of 50 mM HEPES, pH 7.5, 0.01% Brij-35, 0.5 mM EGTA, 20 mM MgCl2 and 1 mM DTT. 10 μL of the ATP and substrate solution mix, for a final concentration of 200 μM ATP and 10 μM peptide substrate, was added to a Coming 3574 384-well, white, non-binding surface microtiter plate containing 0.5 μL of serially diluted test compounds prepared in DMSO. The reactions were started with the addition of 40 μL of the enzyme solution, for a final IRAK4 concentration of 1 nM, and monitored every 71 seconds for 240 minutes at λEX 360/λEM 485 in a BioTek Synergy H4 plate reader (Agilent Technologies, Santa Clara, CA) at room temperature. The initial linear portions of the progress curves were fit according to a linear equation to yield the slopes and converted to % inhibition based on a value of 100% activity for the no inhibitor treated control. IC50 values of each compound were obtained by fitting the % inhibition-compound concentration curves using Dotmatics software (Dotmatics, Bishops Stortford, Hertfordshire, England).

For assay [3], the target named is T1, IRAK4. Description: IRAK4 PhosphoSens Biochemical Assay (BIOCHEM). To be noted: 200 μM ATP, 10 μM peptide substrate AQT0326, 1 nM IRAK4, room temperature, 240 minutes. The source holds these as a separate data set.

The structures appear in SMILES notation.

The term EC50 denotes the midpoint of the concentration-response curve. Higher therefore signals a need for much substance. One may read the IC50 as the concentration that inhibits the measured activity by half. The compound `Cn1nc(C2CCC(=O)NC2=O)c2ccc(NC3CCN(CC4CCC(n5cc(NC(=O)c6cnn7ccc(N8C[C@H](N)C[C@@H](F)C8)nc67)c(C(F)F)n5)CC4)CC3)cc21` (stereo partly drawn) [P-2, N-[3-(difluoromethyl)-1-[4-[[4-[[3-(2,6-dioxo-3-piperidyl)-1-methyl-indazol-6-yl]amino]-1-piperidyl]methyl]cyclohexyl]pyrazol-4-yl]-5-[(3R,5R)-3-amino-5-fluoro-1-piperidyl]pyrazolo[1,5-a]pyrimidine-3-carboxamide] yielded a concentration for a half-maximal effect (EC50) in assay [1] of 4 nM. Also, the half-inhibitory concentration (IC50) in assay [2] is less than 0.5 nM.
In turn, `Cn1nc(C2CCC(=O)NC2=O)c2cccc(NC3CCN(CC4CCC(n5cc(NC(=O)c6cnn7ccc(N8C[C@H](N)C[C@@H](F)C8)nc67)c(C(F)F)n5)CC4)CC3)c21` (stereo partly drawn) [P-3] yielded an EC50 in assay [1] of 8 nM. Besides, the IC50 in assay [2] is less than 0.5 nM.
Take `Cn1nc(C2CCC(=O)NC2=O)c2ccc(NC3CCN(CC4CCC(n5cc(NC(=O)c6cnn7ccc(N8CC[C@H](F)[C@@H](N)C8)nc67)c(C(F)F)n5)CC4)CC3)cc21` (stereo partly drawn) [P-18, N-[3-(Difluoromethyl)-1-[4-[[4-[[3-(2,6-dioxo-3-piperidyl)-1-methyl-indazol-6-yl]amino]-1-piperidyl]methyl]cyclohexyl]pyrazol-4-yl]-5-[(3S,4S)-3-amino-4-fluoro-1-piperidyl]pyrazolo[1,5-a]pyrimidine-3-carboxamide]: in assay [1], the EC50 is 1 nM. Further, in assay [2], the half-maximal inhibitory concentration (IC50) was less than 0.5 nM.
As for `CN(C[C@H]1CC[C@H](n2cc(NC(=O)c3cnn4ccc(N5CCOCC5)nc34)c(C(F)F)n2)CC1)C1CCN(c2ccc3c(C4CCC(=O)NC4=O)nn(C)c3c2)CC1` (stereo partly drawn) [P-29, N-[3-(Difluoromethyl)-1-[4-[[[1-[3-(2,6-dioxo-3-piperidyl)-1-methyl-indazol-6-yl]-4-piperidyl]-methyl-amino]methyl]cyclohexyl]pyrazol-4-yl]-5-morpholino-pyrazolo[1,5-a]pyrimidine-3-carboxamide], the concentration for half-maximal inhibition (IC50) in assay [3] is less than 0.5 nM. Also, the EC50 in assay [1] is greater than 10000 nM.
`CN(c1ccc2c(C3CCC(=O)NC3=O)nn(C)c2c1)C1CCN(C[C@H]2CC[C@H](n3cc(NC(=O)c4cnn5ccc(N6C[C@H](N)C[C@@H](F)C6)nc45)c(C(F)F)n3)CC2)CC1` (stereo partly drawn) [P-31]: the IC50 in assay [3] is less than 0.5 nM. In addition, a half-maximal effect in assay [1] (EC50) was put at 3 nM.
For `CN(c1ccc2c(C3CCC(=O)NC3=O)nn(C)c2c1)C1CCN(C[C@H]2CC[C@H](n3cc(NC(=O)c4cnn5ccc(N6CCOCC6)nc45)c(C(F)F)n3)CC2)CC1` (stereo partly drawn) [P-32], in that order: less than 0.5 nM and 1 nM.
Consider `CN(c1ccc2c(C3CCC(=O)NC3=O)nn(C)c2c1)C1CCN(CC[C@H]2CC[C@H](n3cc(NC(=O)c4cnn5ccc(N6C[C@H](N)C[C@@H](F)C6)nc45)c(C(F)F)n3)CC2)CC1` (stereo partly drawn) [P-33], for which the half-inhibitory concentration (IC50) in assay [3] is less than 0.5 nM. The concentration giving a half-maximal response (EC50) in assay [1] worked out at 10 nM.
In assay [3], `CN(CC[C@H]1CC[C@H](n2cc(NC(=O)c3cnn4ccc(N5CCOCC5)nc34)c(C(F)F)n2)CC1)C1CCN(c2cccc3c(C4CCC(=O)NC4=O)nn(C)c23)CC1` (stereo partly drawn) [P-35] showed a 50% inhibitory concentration (IC50) of 0.8 nM. The same compound showed a concentration for a half-maximal effect (EC50) in assay [1] of 4 nM.
`C[C@H]1CN(CCN2CCC(n3cc(NC(=O)c4cnn5ccc(N6C[C@H](N)C[C@@H](F)C6)nc45)c(C(F)F)n3)CC2)CCN1c1ccc2c(C3CCC(=O)NC3=O)nn(C)c2c1` (stereo partly drawn) [P-36] returned an IC50 in assay [3] of less than 0.5 nM. In assay [1], this compound had an EC50 of 5 nM.
The corresponding values for `C[C@@H]1CN(CCN2CCC(n3cc(NC(=O)c4cnn5ccc(N6C[C@H](N)C[C@@H](F)C6)nc45)c(C(F)F)n3)CC2)CCN1c1ccc2c(C3CCC(=O)NC3=O)nn(C)c2c1` (stereo partly drawn) [P-37, 5-((3R,5R)-3-amino-5-fluoropiperidin-1-yl)-N-(3-(difluoromethyl)-1-(1-(2-((3R)-4-(3-(2,6-dioxopiperidin-3-yl)-1-methyl-1H-indazol-6-yl)-3-methylpiperazin-1-yl)ethyl)piperidin-4-yl)-1H-pyrazol-4-yl)pyrazolo[1,5-a]pyrimidine-3-carboxamide] are less than 0.5 nM and 5 nM.
For `CN(CC[C@H]1CC[C@H](n2cc(NC(=O)c3cnn4ccc(N5CCOCC5)nc34)c(C(F)F)n2)CC1)C1CCN(c2ccc3c(C4CCC(=O)NC4=O)nn(C)c3c2)CC1` (stereo partly drawn) [P-38], in that order: less than 0.5 nM and greater than 10000 nM.
The corresponding values for `Cn1nc(C2CCC(=O)NC2=O)c2ccc(N3CCN(CCN4CCC(n5cc(NC(=O)c6cnn7ccc(N8C[C@H](N)C[C@@H](F)C8)nc67)c(C(F)F)n5)CC4)CC3)cc21` (stereo partly drawn) [P-40, N-[3-(Difluoromethyl)-1-[1-[2-[4-[3-(2,6-dioxo-3-piperidyl)-1-methyl-indazol-6-yl]piperazin-1-yl]ethyl]-4-piperidyl]pyrazol-4-yl]-5-[(3R,5R)-3-amino-5-fluoro-1-piperidyl]pyrazolo[1,5-a]pyrimidine-3-carboxamide] are less than 0.5 nM and 6 nM.
Consider `CN(C[C@H]1CC[C@H](n2cc(NC(=O)c3cnn4ccc(N5CCOC5)nc34)c(C(F)F)n2)CC1)C1CCN(c2ccc3c(C4CCC(=O)NC4=O)nn(C)c3c2)CC1` (stereo partly drawn) [P-41], for which, in assay [3], the half-inhibitory concentration (IC50) was less than 0.5 nM. Also, the EC50 in assay [1] is greater than 10000 nM.
In assay [3], `CN(C)c1ccn2ncc(C(=O)Nc3cn([C@H]4CC[C@H](CN(C)C5CCN(c6ccc7c(C8CCC(=O)NC8=O)nn(C)c7c6)CC5)CC4)nc3C(F)F)c2n1` (stereo partly drawn) [P-43] displayed a concentration for half-maximal inhibition (IC50) of less than 0.5 nM. For the same compound, in assay [1], the concentration for a half-maximal effect (EC50) is greater than 10000 nM.
Regarding `CN(C[C@H]1CC[C@H](n2cc(NC(=O)c3cnn4ccc(NCc5ccccn5)nc34)c(C(F)F)n2)CC1)C1CCN(c2ccc3c(C4CCC(=O)NC4=O)nn(C)c3c2)CC1` (stereo partly drawn) [P-44], the IC50 in assay [3] is 7.3 nM. For the same compound, the EC50 in assay [1] is greater than 10000 nM.
For the compound `CN(C[C@H]1CC[C@H](n2cc(NC(=O)c3cnn4ccc(NCCN)nc34)c(C(F)F)n2)CC1)C1CCN(c2ccc3c(C4CCC(=O)NC4=O)nn(C)c3c2)CC1` (stereo partly drawn) [P-45], the concentration for half-maximal inhibition (IC50) in assay [3] is less than 0.5 nM. In assay [1], this compound came in with an EC50 of 4 nM.
The corresponding values for `CN(C[C@H]1CC[C@H](n2cc(NC(=O)c3cnn4ccc(N5CC[C@H](c6ccn(C)n6)C5)nc34)c(C(F)F)n2)CC1)C1CCN(c2ccc3c(C4CCC(=O)NC4=O)nn(C)c3c2)CC1` (stereo partly drawn) [P-46] are 0.8 nM and greater than 3000 nM.
In turn, `CN(C[C@H]1CC[C@H](n2cc(NC(=O)c3cnn4ccc(N5CC[C@@H](c6ccn(C)n6)C5)nc34)c(C(F)F)n2)CC1)C1CCN(c2ccc3c(C4CCC(=O)NC4=O)nn(C)c3c2)CC1` (stereo partly drawn) [P-47] gave a 50% inhibitory concentration (IC50) in assay [3] of 2.4 nM. For the same compound, in assay [1], the EC50 amounted to 3750 nM.
